Data published in US20230077362A1 (CORTEVA AGRISCIENCE LLC, priority 2019, published 2023).

Experiments:
[1] = system: Beet Armyworm (Spodoptera exigua) ("BAW"), second instar larvae; test: Bioassay on beet armyworm (BAW), 128-well diet tray assay; assay type: in vivo; details: Spodoptera exigua, read-out: BAW (Biological Results, rating)
Procedure, shortened: (§1)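 Covered trays were held at 25° C. under a 14:10 light-dark cycle for five to seven days. Percent mortality was then scored in each well, and activity across eight wells was averaged.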

[2] = system: Cabbage Looper (Trichoplusia ni) ("CL"), second instar larvae; test: Bioassay on cabbage looper (CL), 128-well diet tray assay; assay type: in vivo; details: Trichoplusia ni, read-out: CL (Biological Results, rating)
Procedure, shortened: as §1

Question: What does the source list for `Cc1ccc(COCC(F)(F)F)c(N2C(=O)CS/C2=N\C(=O)Nc2ccc(-c3ncn(-c4ccc(SC(F)(F)F)cc4)n3)cc2F)c1` [Compound J186, (Z)-1-(2-Fluoro-4-(1-(4-((trifluoromethyl)thio)phenyl)-1H-1,2,4-triazol-3-yl)phenyl)-3-(3-(5-methyl-2-((2,2,2-trifluoroethoxy)methyl)phenyl)-4-oxothiazolidin-2-ylidene)urea]?
Answer: pest or weed control at 50 µg/cm2 [1]: 50 to 100%; pest or weed control at 50 µg/cm2 [2]: 50 to 100%

Question: `COC(C)c1ccc(C)cc1N1C(=O)CS/C1=N\C(=O)Nc1ccc(-c2ncn(-c3ccc(SC(F)(F)F)cc3)n2)cc1F` (stereo not drawn) [Compound J187, (Z)-1-(2-Fluoro-4-(1-(4-((trifluoromethyl)thio)phenyl)-1H-1,2,4-triazol-3-yl)phenyl)-3-(3-(2-(1-methoxyethyl)-5-methylphenyl)-4-oxothiazolidin-2-ylidene)urea] was tested. Which pest or weed control at 50 µg/cm2 [1] did it give?
Answer: The pest or weed control at 50 µg/cm2 was 50 to 100%.

Question: And the pest or weed control at 50 µg/cm2 [2]?
Answer: The pest or weed control at 50 µg/cm2 was 50 to 100%.

Question: With `CC(=O)N(C)c1ccc(C(C)C)c(N2C(=O)CS/C2=N\C(=O)Nc2ccc(-c3ncn(-c4ccc(OC(F)(F)F)cc4)n3)cc2F)c1` [Compound J188, (Z)-N-(3-(2-(((2-Fluoro-4-(1-(4-(trifluoromethoxy)phenyl)-1H-1,2,4-triazol-3-yl)phenyl)carbamoyl)imino)-4-oxothiazolidin-3-yl)-4-isopropylphenyl)-N-methylacetamide] as the molecule, how does the pest or weed control at 50 µg/cm2 [1] read?
Answer: The pest or weed control at 50 µg/cm2 was 50 to 100%.

Question: What about the pest or weed control at 50 µg/cm2 [2] of the same molecule?
Answer: The pest or weed control at 50 µg/cm2 was 50 to 100%.

Question: `CCOCc1ccc(C)cc1N1C(=O)CS/C1=N\C(=O)Nc1ccc(-c2ncn(-c3ccc(SC(F)(F)F)cc3)n2)cc1F` [Compound J195, (Z)-1-(3-(2-(Ethoxymethyl)-5-methylphenyl)-4-oxothiazolidin-2-ylidene)-3-(2-fluoro-4-(1-(4-((trifluoromethyl)thio)phenyl)-1H-1,2,4-triazol-3-yl)phenyl)urea] was tested. Which pest or weed control at 50 µg/cm2 [1] did it give?
Answer: The pest or weed control at 50 µg/cm2 was 50 to 100%.

Question: And the pest or weed control at 50 µg/cm2 [2]?
Answer: The pest or weed control at 50 µg/cm2 was 50 to 100%.

Question: What does the source list for `O=C(/N=C1\SCC(=O)N1c1ccccc1N1CCCCC1)Nc1ccc(-c2ncn(-c3ccc(OC(F)(F)F)cc3)n2)cc1F` [Compound J198, (Z)-1-(2-Fluoro-4-(1-(4-(trifluoromethoxy)phenyl)-1H-1,2,4-triazol-3-yl)phenyl)-3-(4-oxo-3-(2-(piperidin-1-yl)phenyl)thiazolidin-2-ylidene)urea]?
Answer: pest or weed control at 50 µg/cm2 [1]: 50 to 100%; pest or weed control at 50 µg/cm2 [2]: 50 to 100%

Question: How did the pest or weed control at 50 µg/cm2 [1] turn out when `CC(=O)N(C)c1ccc(C(C)C)c(N2C(=O)CS/C2=N\C(=O)Nc2ccc(-c3ncn(-c4ccc(OC(F)(F)F)cc4)n3)cc2C)c1` [Compound J199, (Z)-N-(4-Isopropyl-3-(2-(((2-methyl-4-(1-(4-(trifluoromethoxy)phenyl)-1H-1,2,4-triazol-3-yl)phenyl)carbamoyl)imino)-4-oxothiazolidin-3-yl)phenyl)-N-methylacetamide] was run?
Answer: Its pest or weed control at 50 µg/cm2 is 50 to 100%.

Question: And the pest or weed control at 50 µg/cm2 [2]?
Answer: The pest or weed control at 50 µg/cm2 was 50 to 100%.

Question: How did the pest or weed control at 50 µg/cm2 [1] turn out when `CCN(C(C)=O)c1ccc(C(C)C)c(N2C(=O)CS/C2=N\C(=O)Nc2ccc(-c3ncn(-c4ccc(OC(F)(F)F)cc4)n3)cc2C)c1` [Compound J200, (Z)-N-Ethyl-N-(4-isopropyl-3-(2-(((2-methyl-4-(1-(4-(trifluoromethoxy)phenyl)-1H-1,2,4-triazol-3-yl)phenyl)carbamoyl)imino)-4-oxothiazolidin-3-yl)phenyl)acetamide] was run?
Answer: The pest or weed control at 50 µg/cm2 was 50 to 100%.

Question: And the pest or weed control at 50 µg/cm2 [2]?
Answer: Its pest or weed control at 50 µg/cm2 is 50 to 100%.

Question: How did the pest or weed control at 50 µg/cm2 [1] turn out when `Cc1ccc(COCC(F)(F)F)c(N2C(=O)CS/C2=N\C(=O)Nc2ccc(-c3ncn(-c4ccc(SC(F)(F)F)cc4)n3)cc2C)c1` [Compound J204, (Z)-1-(3-(5-Methyl-2-((2,2,2-trifluoroethoxy)methyl)phenyl)-4-oxothiazolidin-2-ylidene)-3-(2-methyl-4-(1-(4-((trifluoromethyl)thio)phenyl)-1H-1,2,4-triazol-3-yl)phenyl)urea] was run?
Answer: Its pest or weed control at 50 µg/cm2 is 50 to 100%.

Question: What about the pest or weed control at 50 µg/cm2 [2] of the same molecule?
Answer: The pest or weed control at 50 µg/cm2 was 50 to 100%.

Question: For `CCOCc1ccc(C)cc1N1C(=O)CS/C1=N\C(=O)Nc1ccc(-c2ncn(-c3ccc(SC(F)(F)F)cc3)n2)cc1C` [Compound J205, (Z)-1-(3-(2-(Ethoxymethyl)-5-methylphenyl)-4-oxothiazolidin-2-ylidene)-3-(2-methyl-4-(1-(4-((trifluoromethyl)thio)phenyl)-1H-1,2,4-triazol-3-yl)phenyl)urea], which pest or weed control at 50 µg/cm2 [1] is on record?
Answer: Its pest or weed control at 50 µg/cm2 is 50 to 100%.

Question: And the pest or weed control at 50 µg/cm2 [2]?
Answer: The pest or weed control at 50 µg/cm2 was 50 to 100%.

Question: For `CCOCc1ccc(C)cc1N1C(=O)CS/C1=N\C(=O)Nc1ccc(-c2ncn(-c3ccc(OC(F)(F)F)cc3)n2)cc1C` [Compound J206, (Z)-1-(3-(2-(Ethoxymethyl)-5-methylphenyl)-4-oxothiazolidin-2-ylidene)-3-(2-methyl-4-(1-(4-(trifluoromethoxy)phenyl)-1H-1,2,4-triazol-3-yl)phenyl)urea], which pest or weed control at 50 µg/cm2 [1] is on record?
Answer: Its pest or weed control at 50 µg/cm2 is 50 to 100%.

Question: What about the pest or weed control at 50 µg/cm2 [2] of the same molecule?
Answer: The pest or weed control at 50 µg/cm2 was 50 to 100%.

Question: What does the source list for `Cc1ccc(C(C)C)c(N2C(=O)CS/C2=N\C(=O)Nc2ccc(-c3ncn(-c4ccc(OC(F)(F)F)cc4)n3)cc2C(F)F)c1` [Compound J211, (Z)-1-(2-(Difluoromethyl)-4-(1-(4-(trifluoromethoxy)phenyl)-1H-1,2,4-triazol-3-yl)phenyl)-3-(3-(2-isopropyl-5-methylphenyl)-4-oxothiazolidin-2-ylidene)urea]?
Answer: pest or weed control at 50 µg/cm2 [1]: 50 to 100%; pest or weed control at 50 µg/cm2 [2]: 50 to 100%

Question: For `Cc1ccc(OCC(F)(F)F)c(N2C(=O)CS/C2=N\C(=O)Nc2ccc(-c3ncn(-c4ccc(OC(F)(F)F)cc4)n3)cc2C(F)F)c1` [Compound J212, (Z)-1-(2-(Difluoromethyl)-4-(1-(4-(trifluoromethoxy)phenyl)-1H-1,2,4-triazol-3-yl)phenyl)-3-(3-(5-methyl-2-(2,2,2-trifluoroethoxy)phenyl)-4-oxothiazolidin-2-ylidene)urea], which pest or weed control at 50 µg/cm2 [1] is on record?
Answer: The pest or weed control at 50 µg/cm2 was 50 to 100%.

Question: And the pest or weed control at 50 µg/cm2 [2]?
Answer: Its pest or weed control at 50 µg/cm2 is 50 to 100%.

Question: With `CC(C)c1ccc(N(C)C)cc1N1C(=O)CS/C1=N\C(=O)Nc1ccc(-c2ncn(-c3ccc(OC(F)(F)F)cc3)n2)cc1C(F)F` [Compound J213, (Z)-1-(2-(Difluoromethyl)-4-(1-(4-(trifluoromethoxy)phenyl)-1H-1,2,4-triazol-3-yl)phenyl)-3-(3-(5-(dimethylamino)-2-isopropylphenyl)-4-oxothiazolidin-2-ylidene)urea] as the molecule, how does the pest or weed control at 50 µg/cm2 [1] read?
Answer: The pest or weed control at 50 µg/cm2 was 50 to 100%.

Question: And the pest or weed control at 50 µg/cm2 [2]?
Answer: The pest or weed control at 50 µg/cm2 was 50 to 100%.

Question: How did the pest or weed control at 50 µg/cm2 [1] turn out when `CCOCc1ccc(C)cc1N1C(=O)CS/C1=N\C(=O)Nc1ccc(-c2ncn(-c3ccc(OC(F)(F)F)cc3)n2)cc1C(F)F` [Compound J214, (Z)-1-(2-(Difluoromethyl)-4-(1-(4-(trifluoromethoxy)phenyl)-1H-1,2,4-triazol-3-yl)phenyl)-3-(3-(2-(ethoxymethyl)-5-methylphenyl)-4-oxothiazolidin-2-ylidene)urea] was run?
Answer: Its pest or weed control at 50 µg/cm2 is 50 to 100%.

Question: What about the pest or weed control at 50 µg/cm2 [2] of the same molecule?
Answer: The pest or weed control at 50 µg/cm2 was 50 to 100%.

Question: Which pest or weed control at 50 µg/cm2 [1] does the source give for `Cc1ccc(COCC(F)(F)F)c(N2C(=O)CS/C2=N\C(=O)Nc2ccc(-c3ncn(-c4ccc(OC(F)(F)F)cc4)n3)cc2C(F)F)c1` [Compound J215, (Z)-1-(2-(Difluoromethyl)-4-(1-(4-(trifluoromethoxy)phenyl)-1H-1,2,4-triazol-3-yl)phenyl)-3-(3-(5-methyl-2-((2,2,2-trifluoroethoxy)methyl)phenyl)-4-oxothiazolidin-2-ylidene)urea] here?
Answer: Its pest or weed control at 50 µg/cm2 is 50 to 100%.

Question: What about the pest or weed control at 50 µg/cm2 [2] of the same molecule?
Answer: The pest or weed control at 50 µg/cm2 was 50 to 100%.

Question: Which results are given for `Cc1ccc(C(C)C)c(N2C(=O)CS/C2=N\C(=O)Nc2ccc(-c3ncn(-c4ccc(OC(F)(F)F)cc4)n3)cc2Br)c1` [Compound J217, (Z)-1-(2-Bromo-4-(1-(4-(trifluoromethoxy)phenyl)-1H-1,2,4-triazol-3-yl)phenyl)-3-(3-(2-isopropyl-5-methylphenyl)-4-oxothiazolidin-2-ylidene)urea]?
Answer: pest or weed control at 50 µg/cm2 [1]: 50 to 100%; pest or weed control at 50 µg/cm2 [2]: 50 to 100%

Question: `Cc1ccc(OCC(F)(F)F)c(N2C(=O)CS/C2=N\C(=O)Nc2ccc(-c3ncn(-c4ccc(OC(F)(F)F)cc4)n3)cc2Br)c1` [Compound J218, (Z)-1-(2-Bromo-4-(1-(4-(trifluoromethoxy)phenyl)-1H-1,2,4-triazol-3-yl)phenyl)-3-(3-(5-methyl-2-(2,2,2-trifluoroethoxy)phenyl)-4-oxothiazolidin-2-ylidene)urea] was tested. Which pest or weed control at 50 µg/cm2 [1] did it give?
Answer: The pest or weed control at 50 µg/cm2 was 50 to 100%.

Question: And the pest or weed control at 50 µg/cm2 [2]?
Answer: The pest or weed control at 50 µg/cm2 was 50 to 100%.

Question: Which results are given for `CC(C)c1ccc(N(C)C)cc1N1C(=O)CS/C1=N\C(=O)Nc1ccc(-c2ncn(-c3ccc(OC(F)(F)F)cc3)n2)cc1Br` [Compound J219, (Z)-1-(2-Bromo-4-(1-(4-(trifluoromethoxy)phenyl)-1H-1,2,4-triazol-3-yl)phenyl)-3-(3-(5-(dimethylamino)-2-isopropylphenyl)-4-oxothiazolidin-2-ylidene)urea]?
Answer: pest or weed control at 50 µg/cm2 [1]: 50 to 100%; pest or weed control at 50 µg/cm2 [2]: 50 to 100%

Question: Which results are given for `COC(C)c1ccc(C)cc1N1C(=O)CS/C1=N\C(=O)Nc1ccc(-c2ncn(-c3ccc(OC(F)(F)F)cc3)n2)cc1Br` (stereo not drawn) [Compound J220, (Z)-1-(2-Bromo-4-(1-(4-(trifluoromethoxy)phenyl)-1H-1,2,4-triazol-3-yl)phenyl)-3-(3-(2-(1-methoxyethyl)-5-methylphenyl)-4-oxothiazolidin-2-ylidene)urea]?
Answer: pest or weed control at 50 µg/cm2 [1]: 50 to 100%; pest or weed control at 50 µg/cm2 [2]: 50 to 100%

Question: `CCOCc1ccc(C)cc1N1C(=O)CS/C1=N\C(=O)Nc1ccc(-c2ncn(-c3ccc(OC(F)(F)F)cc3)n2)cc1Br` [Compound J221, (Z)-1-(2-Bromo-4-(1-(4-(trifluoromethoxy)phenyl)-1H-1,2,4-triazol-3-yl)phenyl)-3-(3-(2-(ethoxymethyl)-5-methylphenyl)-4-oxothiazolidin-2-ylidene)urea] was tested. Which pest or weed control at 50 µg/cm2 [1] did it give?
Answer: The pest or weed control at 50 µg/cm2 was 50 to 100%.

Question: What about the pest or weed control at 50 µg/cm2 [2] of the same molecule?
Answer: The pest or weed control at 50 µg/cm2 was 50 to 100%.

Question: With `Cc1ccc(COCC(F)(F)F)c(N2C(=O)CS/C2=N\C(=O)Nc2ccc(-c3ncn(-c4ccc(OC(F)(F)F)cc4)n3)cc2Br)c1` [Compound J222, (Z)-1-(2-Bromo-4-(1-(4-(trifluoromethoxy)phenyl)-1H-1,2,4-triazol-3-yl)phenyl)-3-(3-(5-methyl-2-((2,2,2-trifluoroethoxy)methyl)phenyl)-4-oxothiazolidin-2-ylidene)urea] as the molecule, how does the pest or weed control at 50 µg/cm2 [1] read?
Answer: The pest or weed control at 50 µg/cm2 was 50 to 100%.

Question: What about the pest or weed control at 50 µg/cm2 [2] of the same molecule?
Answer: The pest or weed control at 50 µg/cm2 was 50 to 100%.
